Tests used:
[1] = tested on: epimastigote forms of Trypanosoma cruzi (Y strain); assay: Antiproliferative assay (XTT), epimastigote forms, 96 h; format: cell-based; conditions: for IC50: Trypanosoma cruzi, epimastigote form, 96 h, XTT, read-out: T. cruzi IC50; for SIT-M, selectivity index (Macrophages CC50/T. cruzi IC50): macrophages vs epimastigote; for SIT-F, selectivity index (Fibroblast CC50/T. cruzi IC50): fibroblast vs epimastigote
Protocol: (§1) The antiproliferative activity was determined in promastigote forms of Leishmania amazonensis (WHOM/BR/75/JOSEFA strain) and epimastigote forms of Trypanosoma cruzi (Y strain). The promastigote forms of L. amazonensis were cultured in Warren medium (brain heart infusion, hemin, and folic acid; pH 7.4) supplemented with 10 % fetal bovine serum (FBS) at 25 °C. The epimastigote forms of T.cruzi were cultured in LIT medium (liver infusion tryptose; hemin, and folic acid; pH 7.4) supplemented with 10 % FBS at 28 °C. Cytotoxicity in mammalian cells was determined in fibroblast line (L929) and macrophages (J774 A1). Fibroblasts were cultured in DMEM medium (pH 7.2) supplemented with 10 % FBS at 37 °C in a 5 % CO2 atmosphere. Macrophages were cultured in RPMI‐1640 (pH 7.2) medium supplemented with 10 % FBS at 37 °C in a 5 % CO2 atmosphere.
(§2) Stock solutions of the compounds were prepared in DMSO and then diluted in the respective medium.
(§3) Promastigote forms (1×10^6 parasites.mL^−1) were cultured in 96‐well plates in the presence and absence of different concentrations of compounds diluted in Warren medium supplemented with 10 % FBS and incubated for 72 h. The epimastigote forms (1×10^6 parasites.mL^−1) were cultured in 96‐well plates in the presence and absence of different concentrations of compounds diluted in LIT medium supplemented with 10 % FBS and incubated for 96 h. After treatment, the parasites were incubated with a solution of 2,3‐bis(2‐methoxy‐4‐nitro‐5‐sulfophenyl)‐2H‐tetrazolium‐5‐carboxanilide (XTT; 0.5 mg.mL^−1) and phenazine methanesulfonate activator (PMS; 0.06 mg.mL^−1) in PBS for 4 h. Then, the absorbance was read in a microplate reader (Bio Tek‐Power Wave XS) at 450 nm.[20] The percentage of viable parasites was calculated in relation to the control in order to determine the concentration that inhibits 50 % of the protozoa (IC50). The control groups of each experiment received the same experimental conditions as the treated groups (cell concentration used, temperature, and incubation time).

[2] = Cytotoxicity assay in mammalian cells (MTT), macrophages, 48 h; format: cell-based; conditions: mouse, J774 A1 macrophages, pH 7.2; 50 % inhibition of macrophages growth, 48 h, MTT
Protocol: as §1, §2
(§4) Fibroblast cell (2.5×10^5 cells.mL^−1) suspensions were prepared in DMEM medium supplemented with 10 % FBS and added to 96‐well plates. Then, the plates were incubated at 37 °C in a CO2 atmosphere for 24 h to obtain confluent cell growth. After incubation, cells were treated with different concentrations of compounds diluted in DMEM for 72 h or left untreated. Macrophage (5×10^5 cells.mL^−1) suspensions were prepared in RPMI‐1640 medium supplemented with 10 % FBS and added to 96‐well plates. Then, the plates were incubated at 37 °C in a CO2 atmosphere for 24 h to obtain confluent cell growth. After incubation, cells were treated with different concentrations of compounds diluted in RPMI‐1640 for 48 h or left untreated. After treatment, the medium was removed, and cells were incubated with MTT (2 mg.mL^−1) for 4 h. Then, DMSO was added for solubilization of the formazan and analyzed with a reading microplate reader (BIO‐TEK PowerWave XS spectrophotometer) at […].[20] The percentage of viable cells was calculated in relation to the untreated control group to determine the cytotoxic concentration in 50 % of the cells (CC50). The control groups of each experiment received the same experimental conditions as the treated groups (cell concentration used, temperature, CO2, and incubation time).

[3] = tested on: promastigote forms of Leishmania amazonensis (WHOM/BR/75/JOSEFA strain); assay: Antiproliferative assay (XTT), promastigote forms, 72 h; format: cell-based; conditions: for IC50: Leishmania amazonensis, promastigote form, 72 h, XTT, read-out: L. amazonensis IC50; for SIL-F, selectivity index (Fibroblast CC50/L. amazonensis IC50): fibroblast vs promastigote; for SIL-M, selectivity index (Macrophages CC50/L. amazonensis IC50): macrophages vs promastigote
Protocol: as §1, §2, §3

[4] = Cytotoxicity assay in mammalian cells (MTT), fibroblasts, 72 h; format: cell-based; conditions: mouse, L929 fibroblast cells, pH 7.2; 50 % inhibition of fibroblast growth, 72 h, MTT
Protocol: as §1, §2, §4

SMILES	IC50 [1] [µM]	SIT-M, selectivity index (Macrophages CC50/T. cruzi IC50) [1]	melting point [°C]	CC50 at 48 h [2] [µM]	IC50 [3] [µM]	SIL-F, selectivity index (Fibroblast CC50/L. amazonensis IC50) [3]	SIL-M, selectivity index (Macrophages CC50/L. amazonensis IC50) [3]	CC50 at 72 h [4] [µM]	SIT-F, selectivity index (Fibroblast CC50/T. cruzi IC50) [1]
O=C(N/N=C/c1ccccc1)c1noc(-c2ccc([N+](=O)[O-])cc2)c1CNc1ccccc1 [4 aa, 3‐[(2E)‐N'‐(Benzylidene)hydrazinecarbonyl]‐4‐(phenyl)aminomethyl‐5‐(4‐nitrophenyl)isoxazole]	35.1 ± 4.6	2.86	92.6 to 94.4	100 ± 6	40.7 ± 3.2	2.90	2.47	118 ± 7.3	
O=C(N/N=C/c1ccccc1)c1noc(-c2ccc([N+](=O)[O-])cc2)c1CNc1ccc(Cl)cc1 [4 ab]	147 ± 10.7	1.96	177.6 to 179	287.4 ± 2.3	133 ± 8.8	3.01	2.18	398 ± 6.9	2.71
O=C(N/N=C/c1ccccc1)c1noc(-c2ccccc2)c1CNc1ccccc1 [4 ba]	69.6 ± 3.9	5.54	169.9 to 172	385.6 ± 3.2	76.8 ± 8.7	5.32	5.02	409 ± 7.8	5.87
O=C(N/N=C/c1ccccc1)c1noc(-c2ccccc2)c1CNc1ccc(Cl)cc1 [4 bb]	27 ± 1.1	11.30	188.4 to 190.1	305 ± 7.4	27.8 ± 0.7	11.57	10.98	322 ± 9.7	11.91
COc1ccc(NCc2c(C(=O)N/N=C/c3ccccc3)noc2-c2ccccc2)cc1 [4 bc]	26.7 ± 3.9	6.61	197.6 to 199.6	176 ± 6.6	21.5 ± 0.8	9.75	8.20	210 ± 4.7	7.85
O=C(N/N=C/c1ccccc1)c1noc(-c2ccc(F)cc2)c1CNc1ccccc1 [4 ca]	149 ± 10.3	5.29	157.7 to 159.6	784 ± 10.6	135 ± 11.4	6.04	5.83	814 ± 13.5	5.47
O=C(N/N=C/c1ccccc1)c1noc(-c2ccc(F)cc2)c1CNc1ccc(Cl)cc1 [4 cb]	98.7 ± 10.1	3.69	167.9 to 170.5	365 ± 8.7	87.3 ± 6.4	4.37	4.18	381 ± 6.9	3.86
COc1ccc(NCc2c(C(=O)N/N=C/c3ccccc3)noc2-c2ccc(F)cc2)cc1 [4 cc]	78.6 ± 7.4	3.81	181.7 to 185.5	300 ± 8.9	56.3 ± 8.5	5.46	5.32	308 ± 9.8	3.91
O=C(N/N=C/c1ccccc1)c1noc(-c2ccc(Cl)cc2)c1CNc1ccccc1 [4 da]	49.7 ± 2.2	4.74	189.3 to 191.8	236 ± 9.6	48.6 ± 2.8	5.46	4.85	266 ± 5.9	5.34
O=C(N/N=C/c1ccccc1)c1noc(-c2ccc(Cl)cc2)c1CNc1ccc(Cl)cc1 [4 db]	71 ± 4.7	5.56	167.5 to 169.3	395 ± 9.9	67.4 ± 3.9	6.00	5.86	404.7 ± 4	5.70
COc1ccc(NCc2c(C(=O)N/N=C/c3ccccc3)noc2-c2ccc(Cl)cc2)cc1 [4 dc]	65.9 ± 6.1	3.71	176.3 to 177.1	245 ± 7.9	54.3 ± 2.7	5.45	4.50	296 ± 9	4.49
O=C(N/N=C/c1ccccn1)c1noc(-c2ccc([N+](=O)[O-])cc2)c1CNc1ccccc1 [5 aa, 3‐[(2E)‐N'‐(2‐pyridinylmethylene)hydrazinecarbonyl]‐4‐(phenyl)aminomethyl‐5‐(4‐nitrophenyl)isoxazole]	123 ± 10.9	3.16	223.8 to 225.5	388 ± 7.9	126 ± 2.1	3.24	3.09	407.3 ± 3.9	3.31
O=C(N/N=C/c1ccccn1)c1noc(-c2ccccc2)c1CNc1ccccc1 [5 ba]	33.6 ± 4.4	9.02	194.8 to 195.6	303 ± 9.5	35.8 ± 4.8	9.20	8.47	330 ± 5.6	9.80
O=C(N/N=C/c1ccccn1)c1noc(-c2ccccc2)c1CNc1ccc(Cl)cc1 [5 bb]	26.9 ± 0.9	11.18	209.3 to 211.7	301 ± 5.9	27.8 ± 4.1	12.38	11.01	338 ± 8.6	12.57
O=C(N/N=C/c1ccccn1)c1noc(-c2ccc(F)cc2)c1CNc1ccccc1 [5 ca]	69.5 ± 3.7	5.38	157.7 to 159.6	374 ± 5.8	74.8 ± 2.9	5.38	5.01	403 ± 8.6	5.79
O=C(N/N=C/c1ccccn1)c1noc(-c2ccc(F)cc2)c1CNc1ccc(Cl)cc1 [5 cb]	39.4 ± 3.1	2.84	202.4 to 203.9	112 ± 6.8	22.6 ± 5	6.81	4.96	154 ± 7.8	3.91

Source: paper PMC8485799, “Synthesis and Antiprotozoal Profile of 3,4,5‐Trisubstituted Isoxazoles” (ChemistryOpen, 2021)
